Data from the supplement of paper PMC10627819.

Tests used:
S. pneumoniae D39V [1] = experiment: fitness (endpoint OD595 vs no drug) (fraction); higher = more growth
How it was run: (§1)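 Cultures at OD595 0.01 were dispensed into 384-well plates in TSB, LB Lennox or CY and incubated at 37 °C. Every 30 min for 14 h, OD595 was read and corrected by the first reading. Fitness is the optical density at entry into stationary phase relative to the robust mean of no-drug control wells, capped at 1.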

B. subtilis 168 [2] = experiment: as above
How it was run: as §1

S. pneumoniae D39V [3] = experiment: Bliss interaction score (quartile over a dose matrix) (fitness difference); higher = more antagonism (negative = synergy)
How it was run: (§2)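 Fitness is OD595 at stationary-phase entry relative to the plate's robust no-drug mean, capped at 1. Single-drug fitness was inferred from combinations. The Bliss score is observed minus product-expected fitness, summarised by quartiles over technical, biological and donor/recipient replicates.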

S. aureus DSM 20231 = experiment: as above
How it was run: as §2

B. subtilis 168 [4] = experiment: as above
How it was run: as §2

S. aureus Newman = experiment: as above
How it was run: as §2
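Wherever Bliss interaction score (quartile over a dose matrix) is given: first quartile when negative (synergy) and third quartile when positive (antagonism).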

CCCCCCCCCC(=O)N[C@@H](Cc1c[nH]c2ccccc12)C(=O)N[C@H](CC(N)=O)C(=O)N[C@@H](CC(=O)O)C(=O)N[C@@H]1C(=O)NCC(=O)N[C@@H](CCCN)C(=O)N[C@@H](CC(=O)O)C(=O)N[C@H](C)C(=O)N[C@@H](CC(=O)O)C(=O)NCC(=O)N[C@H](CO)C(=O)N[C@@H]([C@H](C)CC(=O)O)C(=O)N[C@@H](CC(=O)c2ccccc2N)C(=O)O[C@@H]1C [Daptomycin] + CCC(C)C1C(=O)NC(=C)C(=O)NC(C(=O)NC(CSCC(C(=O)N1)NC(=O)/C(=C/C)/NC(=O)C(C(C)CC)N)C(=O)NC2C(SCC(NC(=O)CNC(=O)C3CCCN3C2=O)C(=O)NC(CCCCN)C(=O)NC4C(SCC(NC(=O)CNC(=O)C(NC(=O)C(NC(=O)C(NC(=O)CNC4=O)C)CC(C)C)CCSC)C(=O)NC(CC(=O)N)C(=O)NC(CCSC)C(=O)NC(CCCCN)C(=O)NC5C(SCC6C(=O)NC(C(=O)NC(CSC(C(C(=O)N6)NC(=O)C(NC5=O)C)C)C(=O)NC(CO)C(=O)NC(C(C)CC)C(=O)NC(CC7=CN=CN7)C(=O)NC(C(C)C)C(=O)NC(=C)C(=O)NC(CCCCN)C(=O)O)CC8=CN=CN8)C)C)C)CC(C)C [Nisin]
fitness, main component drawn
Details	partner 0.4275 µg/mL	partner 0.5 µg/mL	partner 0.855 µg/mL	partner 1 µg/mL	partner 1.6 µg/mL	partner 1.71 µg/mL	partner 2 µg/mL	partner 3.2 µg/mL	partner 6.4 µg/mL
B. subtilis 168 [2], first compound 0.25 µg/mL	–	0.863	–	0.788	–	–	0.58	–	–
B. subtilis 168 [2], first compound 0.5 µg/mL	–	0.828	–	0.794	–	–	0.595	–	–
S. pneumoniae D39V [1], first compound 1 µg/mL	0.995	–	0.874	–	0.022	0.0748	–	0.0226	0.0257
S. pneumoniae D39V [1], first compound 2 µg/mL	0.98	–	0.905	–	0.0316	0.077	–	0.0221	0.013
S. pneumoniae D39V [1], first compound 4 µg/mL	0.95	–	0.796	–	0.0215	0.0872	–	0.0303	0.0068

fitness, B. subtilis 168 [2], one replicate, main component drawn
Details	first compound 0.125 µg/mL	first compound 0.25 µg/mL	first compound 0.5 µg/mL	first compound 1 µg/mL
partner 0.5 µg/mL	0.829	–	–	0.726
partner 1 µg/mL	0.873	–	–	0.676
partner 1.25 µg/mL	0.963	0.933	≥ 1	–
partner 1.6 µg/mL	0.788	0.654	0.797	–
partner 2 µg/mL	0.439	–	–	0.451
partner 2.5 µg/mL	0.234	0.593	0.601	–
partner 3.2 µg/mL	0.0337	0.0148	0.0344	–
partner 4 µg/mL	0.212	0.0372	0.0568	–
partner 5 µg/mL	0.077	0.0364	0.0223	–
partner 6.4 µg/mL	0.0443	0.039	0.026	–
partner 8 µg/mL	0.0734	0.157	0.0959	–
partner 16 µg/mL	0.0313	0.1	0.0497	–

main component drawn
Details	Bliss interaction score
B. subtilis 168 [4]	0.0676
S. aureus DSM 20231	0.209
S. aureus Newman	0.0445
S. pneumoniae D39V [3]	-0.0492

CCCCCCCCCC(=O)N[C@@H](Cc1c[nH]c2ccccc12)C(=O)N[C@H](CC(N)=O)C(=O)N[C@@H](CC(=O)O)C(=O)N[C@@H]1C(=O)NCC(=O)N[C@@H](CCCN)C(=O)N[C@@H](CC(=O)O)C(=O)N[C@H](C)C(=O)N[C@@H](CC(=O)O)C(=O)NCC(=O)N[C@H](CO)C(=O)N[C@@H]([C@H](C)CC(=O)O)C(=O)N[C@@H](CC(=O)c2ccccc2N)C(=O)O[C@@H]1C [Daptomycin] + CN(C)C(=O)C(CCN1CCC(O)(c2ccc(Cl)cc2)CC1)(c1ccccc1)c1ccccc1 [Loperamide]
fitness
Details	partner 17.14 µg/mL	partner 20 µg/mL	partner 25 µg/mL	partner 34.28 µg/mL	partner 40 µg/mL	partner 80 µg/mL	partner 100 µg/mL
B. subtilis 168 [2], first compound 0.125 µg/mL	–	–	0.862	–	–	–	0.0281
B. subtilis 168 [2], first compound 0.25 µg/mL	–	–	0.802	–	–	–	0.0213
B. subtilis 168 [2], first compound 0.5 µg/mL	–	–	0.669	–	–	–	0.0107
S. pneumoniae D39V [1], first compound 1 µg/mL	0.888	≥ 1	–	0.877	≥ 1	0.225	–
S. pneumoniae D39V [1], first compound 2 µg/mL	0.951	≥ 1	–	0.919	≥ 1	0.153	–
S. pneumoniae D39V [1], first compound 4 µg/mL	0.917	≥ 1	–	0.918	≥ 1	0.196	–

fitness, one replicate
Details	first compound 1 µg/mL	first compound 2 µg/mL	first compound 4 µg/mL
B. subtilis 168 [2], partner 25 µg/mL	0.191	–	–
B. subtilis 168 [2], partner 50 µg/mL	0.0409	–	–
B. subtilis 168 [2], partner 100 µg/mL	0.0167	–	–
S. pneumoniae D39V [1], partner 68.57 µg/mL	0.856	0.858	0.887

Details	Bliss interaction score
B. subtilis 168 [4]	0.136
S. aureus DSM 20231	0.133
S. aureus Newman	0.0375
S. pneumoniae D39V [3]	0.075

CCCCCCCCCC(=O)N[C@@H](Cc1c[nH]c2ccccc12)C(=O)N[C@H](CC(N)=O)C(=O)N[C@@H](CC(=O)O)C(=O)N[C@@H]1C(=O)NCC(=O)N[C@@H](CCCN)C(=O)N[C@@H](CC(=O)O)C(=O)N[C@H](C)C(=O)N[C@@H](CC(=O)O)C(=O)NCC(=O)N[C@H](CO)C(=O)N[C@@H]([C@H](C)CC(=O)O)C(=O)N[C@@H](CC(=O)c2ccccc2N)C(=O)O[C@@H]1C [Daptomycin] + CO[C@@H]1[C@@H](OC(N)=O)[C@@H](O)[C@H](Oc2ccc3c(O)c(NC(=O)c4ccc(O)c(CC=C(C)C)c4)c(=O)oc3c2C)OC1(C)C [Novobiocin]
fitness, B. subtilis 168 [2]
Details	first compound 0.125 µg/mL	first compound 0.25 µg/mL	first compound 0.5 µg/mL
partner 0.0125 µg/mL	0.94	0.981	0.899
partner 0.025 µg/mL	0.916	0.94	0.867
partner 0.05 µg/mL	0.968	0.984	0.902

fitness, B. subtilis 168 [2], one replicate
Details	partner 0.05 µg/mL	partner 0.1 µg/mL	partner 0.125 µg/mL	partner 0.2 µg/mL	partner 0.25 µg/mL	partner 0.5 µg/mL
first compound 0.125 µg/mL	–	–	0.958	–	0.954	0.649
first compound 0.25 µg/mL	–	0.96	≥ 1	0.957	≥ 1	0.579
first compound 0.5 µg/mL	–	0.94	≥ 1	0.936	0.965	0.288
first compound 1 µg/mL	0.738	0.791	–	0.759	–	–

Details	Bliss interaction score
B. subtilis 168 [4]	0.0788
S. aureus DSM 20231	0.0439
S. aureus Newman	0.0984
S. pneumoniae D39V [3]	0.0661
